Structures are written as SMILES. Records with an inconclusive call do not appear. A value given as a limit tells only on which side of the number the result lay.

The subject of this assay is U2OS PGC1a acetylation AlphaLISA, overnight. The assay is described as follows: PGC1a acetylation increase, cellular AlphaLISA – cell-based, cherry-picked samples, set 6, dose response (AID 720513).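 Further: cells made to overexpress flag tagged PGC1a plus GCN5 acetyltransferase by viral infection.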 A general note: In Alpha technology, singlet oxygen from a donor bead excites a nearby acceptor bead.
`CCC(CC)C(=O)c1c[nH]c(C(=O)NCc2ccccc2)c1`: the AC40 is 0.689 µM.
As to `C[C@H]1CN([C@@H](C)CO)C(=O)c2cccc(NS(=O)(=O)c3ccc(F)cc3)c2O[C@H]1CN(C)Cc1ccc(C(F)(F)F)cc1`, the AC40 is 1.3 µM.
Under `OCCNc1nc(N2CCCCC2)nc2ccccc12` stands 18.1 µM; under `O=C(Cc1ccccc1)Nc1cccc(-c2nc3ncccc3o2)c1`, 2.71 µM.
As for `O=C(CCCn1c(=O)[nH]c2cc(Cl)ccc2c1=O)NCCC1=CCCCC1`, the AC40 was 0.371 µM.
With `O=C(NCc1ccc(Cl)cc1)C1CCC(CNc2c(N3CCCC3)c(=O)c2=O)CC1` (stereo not given) the figure was 6.36 µM; with `COc1ccc(N(C(=O)c2csnn2)C(C(=O)NC2CCCC2)c2cccs2)cc1` (stereo not given), 2.62 µM.
With `C[C@@H]1CN([C@H](C)CO)C(=O)c2cccc(NC(=O)c3ccc(-c4nccs4)cc3)c2O[C@@H]1CN(C)Cc1ccc(C(=O)Nc2ccccc2N)cc1` the figure was under 0.16 µM; with `CO[C@@H]1CN(C)C(=O)c2cc(NC(=O)c3ccc(Oc4ccccc4)cc3)ccc2OC[C@@H](C)NC[C@@H]1C`, 15.2 µM.
Under `CCOC(=O)c1c(CN2CCN(CC#N)CC2)n(C)c2cc(Br)c(OC)cc12` stands 0.701 µM; under `CCOC(=O)c1ccc(NC(=O)Nc2ccc(F)cc2)cc1`, 16.2 µM; under `COc1ccc(-c2nc(N)c(C#N)c(-c3cccnc3)c2C)cc1`, 0.69 µM.
`CC1(Cc2ccc(Cl)cc2)C(=O)Nc2c(Cl)ccc(Cl)c21` (stereo not given): the AC40 is 4.52 µM.
Turning to `CCOC(=O)CNS(=O)(=O)c1cc(-c2nnc(Nc3ccc4c(c3)OCO4)c3ccccc23)ccc1C`, the AC40 is 1.29 µM.
With `COc1ccc(C#Cc2cnc3c(c2)C(=O)N([C@H](C)CO)C[C@H](C)[C@H](CN(C)S(=O)(=O)c2cccc(F)c2)O3)cc1OC` the figure was 18.8 µM; with `Cc1ccc2c(CN(Cc3ccccc3)Cc3ccccc3)cc(=O)oc2c1`, 6.06 µM.
On to `Cc1ccc(S(=O)(=O)CCSC(=N)N)cc1`, for which the AC40 was 5.17 µM.
In the case of `O=C(CCCc1nc(-c2ccccc2Cl)no1)NCc1cccnc1`, the AC40 was 3.78 µM.
Take `CCOc1ccccc1CN1CCN(C2CCC2)CC1CCO` (stereo not given): the AC40 was 6.23 µM.
`N#Cc1ccccc1COC(=O)c1ccc2c(c1)OCCO2`: the AC40 was 5.43 µM.
As for `C=CCS(=O)(=O)c1nc2ccccc2s1`, the AC40 was 2.99 µM.
As to `CS(=O)(=O)N(CC(=O)N1CCN(c2ccccc2)CC1)c1cccc(Br)c1`, the AC40 is 17.8 µM.
`OC(COc1ccc(CNCCc2ccc(C(F)(F)F)cc2)cc1)CN1CCCCC1` (stereo not given): the AC40 was 0.9 µM.
`CCOC(=O)c1ccc(NC(=O)N2CCc3ccccc3C2)cc1`: the AC40 is 0.478 µM.
Consider `Cc1cc2c(cc1S(=O)(=O)N1CCc3ccccc31)NC(=O)CO2`, for which the AC40 is 2.18 µM.
As for `O=C(c1ccccc1Nc1ccc(SC(F)F)cc1)N1CCCCCC1`, the AC40 was 10.3 µM.
In the case of `COc1ccccc1/C=C1\SC(=O)N(CCC(=O)NCCCn2ccnc2)C1=O`, the AC40 is 2.07 µM.
For `COc1ccc(CC(=O)OCC(=O)NCc2ccco2)cc1`, the AC40 is 9.28 µM.
Under `COc1ccc(NC(=O)N2CCN(c3ccc([N+](=O)[O-])cc3)CC2)cc1` stands 1.52 µM; under `Nc1ccccc1Oc1ncc(C(F)(F)F)cc1Cl`, 7.04 µM.
Under `COc1ccc(CN2CCn3ncc(C(=O)Nc4ccccc4)c3C2=O)cc1` stands 13.4 µM.
Regarding `CCOC(=O)c1c(-c2ccc(C)cc2C)csc1NC(=O)CSc1nnnn1C`, the AC40 is 8.11 µM.
Take `CC(C)CCNc1nc(N2CCCC2)c2c(c1C#N)CCN(C)C2`: the AC40 was 3.92 µM.
With `Cc1cc(N2CCC(C(N)=O)CC2)nc(-c2ccccc2)n1` the figure was 3.95 µM; with `Cc1nn2c(NCCCN3CCOCC3)c3c(nc2c1-c1ccccc1)CCC3`, 3.72 µM.
On to `CC(C)NC(=O)N(C)C[C@H]1OCCCC[C@@H](C)Oc2ccc(NC(=O)Cc3ccccc3)cc2C(=O)N([C@@H](C)CO)C[C@H]1C`, for which the AC40 is 16.4 µM.
Take `O=C(CC1SC(=Nc2ccc3c(c2)OCCO3)NC1=O)Nc1ccc(F)cc1F` (stereo not given): the AC40 was 0.191 µM.
Turning to `NC(=O)Cn1cc(C(=O)c2cccs2)c2ccccc21`, the AC40 is 3.92 µM.
With `CC12CCC(C1)C(C)(C)C2NS(=O)(=O)c1ccc(F)cc1` (stereo not given), the AC40 was 5.98 µM.
Take `Cc1ccc(CN(CC(O)COc2cccc3[nH]cc(C)c23)C(C)(C)C)cc1` (stereo not given): the AC40 was 2.49 µM.
As to `O=C(Nc1ccc(-c2noc(CCc3ccccc3)n2)cc1)c1cccnc1`, the AC40 is 0.346 µM.
With `C[C@H](CO)N1C[C@H](C)[C@H](CN(C)Cc2ccc(C(=O)Nc3ccccc3N)cc2)Oc2c(NC(=O)c3ccncc3)cccc2C1=O` the figure was 12 µM; with `CO[C@@H](C(=O)N(C)C[C@H]1OCc2ccccc2-c2c(n(C)c3ccccc23)C(=O)N([C@H](C)CO)C[C@H]1C)c1ccccc1`, 8.25 µM; with `CCOc1ccccc1N(C)C(=O)C1CCN(S(=O)(=O)c2cccc3nonc23)CC1`, 3.29 µM.
As for `C[n+]1c2n(c3ccccc31)N=C(c1cc(C(C)(C)C)c(O)c(C(C)(C)C)c1)CS2`, the AC40 is 3.5 µM.
Turning to `CCOc1ccc2c(c1)C(C)=CC(C)(C)N2S(=O)(=O)c1ccc(C)cc1`, the AC40 was 0.781 µM.
As to `O=C(Nc1cnc2ccccc2c1)c1cccnc1`, the AC40 is 0.651 µM.
Turning to `N#Cc1cccc(C(c2nnnn2C2CCCC2)N2CCCCCC2)c1` (stereo not given), the AC40 was 1.24 µM.
Under `O=C(Cc1ccccc1)Nc1nc(-c2ccc(F)c(F)c2)cs1` stands 1.44 µM; under `CC(=O)c1ccc(N2CCN(c3ccc(S(=O)(=O)NCCN(C)C)cc3[N+](=O)[O-])CC2)cc1`, 6.58 µM.
Under `CCC(C)(C)n1nnnc1CN(Cc1ccc(Cl)cc1)Cc1ccco1` stands 1.39 µM; under `COC(=O)C(Nc1ccccc1Cl)(c1cc(C)c(O)c(C)c1)C(F)(F)F` (stereo not given), 0.641 µM.
Consider `COc1ccc(Nc2nnc(-c3ccc(C(N)=O)cc3)c3ccccc23)cc1`, for which the AC40 is 0.524 µM.
For `COc1ccc(C(c2nnnn2C2CCCC2)N2CCC(C)CC2)c(OC)c1` (stereo not given), the AC40 is 1.86 µM.
Turning to `CCO[C@H]1OC(C(=O)Nc2ccccc2)=C[C@@H](c2csc3ccccc23)[C@@H]1CCCO`, the AC40 was 15.7 µM.
For `O=S(=O)(NCc1ccccc1Br)c1ccccc1Br`, the AC40 was 1.68 µM.
For the compound `O=C(NCCC(c1ccccc1)c1ccccc1)c1ccc(Br)o1`, the AC40 is 12.9 µM.
For the compound `COc1cc(CN2CC3(CCN(S(=O)(=O)c4cccs4)CC3)c3c(n(C)c4cc(OC)ccc34)[C@H]2CO)cc(OC)c1`, the AC40 was 14.3 µM.
`Cc1ccc(C(=O)c2c[nH]c(C(=O)NCc3cccnc3)c2)cc1`: the AC40 was 2.67 µM.
For `Cc1cc(Nc2cccc(Cl)c2)c2ccccc2n1`, the AC40 is 6.94 µM.
For `CCCc1cc2c(cc1N(C)S(=O)(=O)c1ccccc1)OCO2`, the AC40 was 2.96 µM.
Consider `O=C(COc1ccc([N+](=O)[O-])cc1)Nc1ccc(C(=O)NCc2cccnc2)cc1`, for which the AC40 is 0.283 µM.
With `O=C(NCCCN1CCOCC1)c1ccccc1N1C(=O)[C@@H]2Cc3c([nH]c4ccccc34)C(c3ccccc3)N2C1=O` (stereo not given in full), the AC40 was 6.79 µM.
As for `O=C(CSc1nc2c(sc3ccccc32)c(=O)n1CCc1ccccc1)NCc1ccco1`, the AC40 is 18.1 µM.
Regarding `CCOC(=O)C1=CC[C@@H](c2ccc(F)cc2)N(S(=O)(=O)c2ccc(C)cc2)[C@H]1c1ccccc1`, the AC40 was 3.22 µM.
`COc1ccc([C@H]2/C=C\CN(S(=O)(=O)/C=C/c3ccccc3)[C@@H](C)C(=O)N2Cc2ccc(F)cc2)cc1`: the AC40 was 5.99 µM.
On to `Cc1cc(C(=O)NNS(=O)(=O)c2ccccc2C(F)(F)F)nn1C(C)(C)C`, for which the AC40 is 1.04 µM.
In the case of `Cc1ccc(NC(=O)c2sccc2SCc2cccc(C(F)(F)F)c2)cc1`, the AC40 is 5.13 µM.
Take `COCCN(C)Cc1nc(C(c2ccccc2)c2ccccc2)no1`: the AC40 was 9.12 µM.
With `COc1ccc(-n2c(=O)c3c4c(sc3n3c(=S)[nH]nc23)CCC4)cc1` the figure was 0.563 µM; with `COc1ccccc1-c1ccc(C2[C@@H]3CN(Cc4cccc(F)c4)C[C@H]2N3)cc1` (stereo not given in full), 7.21 µM.
As to `CCCCN=C1NC(=O)C(CC(=O)Nc2ccc(Cl)cc2)S1` (stereo not given), the AC40 was 3.53 µM.
With `O=C1NC(=Nc2ccccc2Cl)S/C1=C\c1cccc([N+](=O)[O-])c1O`, the AC40 was 10.6 µM.
Under `Cc1cc(C)cc(N(CC(=O)NC2CC3CCC2C3)S(C)(=O)=O)c1` (stereo not given) stands 17.1 µM; under `COc1ccc(C#Cc2c(-c3ccccc3)n(-c3ccccc3)c3ccc(CO)cc23)cc1`, 2.19 µM.

These data come from PubChem BioAssay AID720513 (Broad Institute, 2013).
